Assay results taken from US20250340579A1 (priority 2022, published 2025).

How the values were obtained:
[1] = in vivo; cited from earlier work
[2] = pH 7.4

Compound	effectiveness post-cyanide exposure versus pre-exposure [1]	solution stability [2]
C/C1=C2/[N-][C@H]([C@H](CC(N)=O)[C@@]2(C)CCC(=O)NC[C@@H](C)O)[C@]2(C)N=C(/C(C)=C3N=C(/C=C4N=C1[C@@H](CCC(N)=O)C\4(C)C)[C@@H](CCC(N)=O)[C@]\3(C)CC(N)=O)[C@@H](CCC(N)=O)[C@]2(C)CC(N)=O.[Co+3] [Cobinamide]	as effective when administered up to 5 minutes post-cyanide exposure as when given pre-exposure	
bis-aminotetrazole-cobinamide		stable at room temperature when protected from bright light
